Reference: patent US7268128B2, “1,3,5-trisubstituted-5-phenyl and 5-pyridyl pyrazolopyrimidinone derivatives having PDE7 inhibiting action” (Ausbio Pharma Co., Ltd., priority 2001, dated 2007)
pIC50: −log10 of the molar value.

biological target: T1, PDE7 (type VII phosphodiesterase) (Homo sapiens, UniProt Q13946); experiment: PDE7 inhibiting activity (3H-cAMP hydrolysis, active fraction from MOLT-4 cells); type: biochemical; conditions: PDE7 fraction from MOLT-4 cells, 0.064 μM cAMP, 10 μM rolipram present, 2 hours at 25° C.; read-out: IC50 values for phosphodiesterase inhibiting activities (PDE7)
T1 construct: endogenous in cells; host or cells: MOLT-4 (ATCC CRL-1582), soluble fraction, HiTrapQ anion-exchange fraction
T1 sequence (Q13946 whole entry): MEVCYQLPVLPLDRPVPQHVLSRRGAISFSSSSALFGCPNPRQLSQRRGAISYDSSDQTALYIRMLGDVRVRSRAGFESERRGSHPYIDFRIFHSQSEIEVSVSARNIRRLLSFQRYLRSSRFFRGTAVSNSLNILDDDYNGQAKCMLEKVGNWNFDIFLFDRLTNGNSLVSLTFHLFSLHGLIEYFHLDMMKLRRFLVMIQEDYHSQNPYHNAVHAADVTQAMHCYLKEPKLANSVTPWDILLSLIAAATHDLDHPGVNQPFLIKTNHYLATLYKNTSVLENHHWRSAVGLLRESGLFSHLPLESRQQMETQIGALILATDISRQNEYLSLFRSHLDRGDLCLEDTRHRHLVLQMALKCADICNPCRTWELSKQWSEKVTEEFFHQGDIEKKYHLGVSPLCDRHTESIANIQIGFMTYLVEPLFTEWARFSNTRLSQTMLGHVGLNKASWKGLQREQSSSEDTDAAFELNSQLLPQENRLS
Experimental: To evaluate the compounds of the present invention for the ability to suppress PDE7 (type VII phosphodiesterase), the method of Biochemical Pharmacol. 48(6), 1219-1223 (1994) was partially modified to perform the following assay:
1) PDE7 (type VII phosphodiesterase) active fraction was obtained. That is, human acute lymphoblastoid lymphoma T cell strain MOLT-4 (purchasable from ATCC under ATCC No. CRL-1582) was cultured in RPMI1640 medium containing 10% fetal bovine serum to obtain 5×10^8 MOLT4 cells. The cells were harvested by centrifugation, and suspended in 10 ml of buffer A (25 mM tris-HCl, 5 mM 2-mercaptoethanol, 2 mM benzamidine, 2 mM EDTA, 0.1 mM 4-(2-aminoethyl)benzenesulfonyl hydrochloride, pH 7=7.5). The cells were homogenized in a Polytoron homogenizer, and centrifuged (4° C., 25,000 G, 10 min). The supernatant was further ultracentrifuged (4° C., 100,000 G, 60 min), and the resulting supernatant was filtered through a 0.2 μm filter to obtain a soluble fraction.
2) HiTrapQ column (5 ml×2) equilibrated with buffer A was charged with the resulting soluble fraction. Phosphodiesterase was eluted using 300 ml of buffer A containing a linear gradient solution of 0 to 0.8M sodium chloride to collect sixty 5 ml fractions. Each fraction was tested for cAMP metabolizing phosphodiesterase activity.
3) The test compounds at desired concentrations were each reacted for 2 hours at 25° C. in a reactant mixture containing 20 mM tris-HCl (pH 7.5), 1 mM MgCl2, 100 μM EDTA, 330 μg/ml bovine serum albumin, 4 μg/ml 5′-nucleotidase, 0.1 μCi^3H-cAMP (0.064 μM cAMP), 10 μM rolipram, and the type VII phosphodiesterase stored solution. QAE-Sephadex suspended in 10 mM HEPES-Na (pH 7.0) was added to the reaction mixture, and the mixture was allowed to stand for 5 minutes. Then, the supernatant was recovered, and QAE-Sephadex was further added, followed by allowing the mixture to stand for 5 minutes. Then, the resulting supernatant was measure for radioactivity.
4) IC50, as the concentration of the test compound that inhibited 50% of the metabolic activity of PDE7, was calculated for each of the compounds.

SMILES | pIC50
Cc1nn(C2CCCCC2)c2c(=O)[nH]c(-c3ccccc3)nc12 [Example 1, 1-Cyclohexyl-3-methyl-5-phenyl-1,6-dihydro-7H-pyrazolo[4,3-d]pyrimidin-7-one] | ≥ 6.00
Cc1nn(C2CCCCC2)c2c(=O)[nH]c(-c3ccc([N+](=O)[O-])cc3)nc12 [Example 2, 1-Cyclohexyl-3-methyl-5-(4-nitrophenyl)-1,6-dihydro-7H-pyrazolo[4,3-d]pyrimidin-7-one] | ≥ 6.00
Cc1nn(C2CCCCC2)c2c(=O)[nH]c(-c3ccc(N)cc3)nc12 [Example 3, 5-(4-Aminophenyl)-1-cyclohexyl-3-methyl-1,6-dihydro-7H-pyrazolo[4,3-d]pyrimidin-7-one] | ≥ 6.00
CC(=O)Nc1ccc(-c2nc3c(C)nn(C4CCCCC4)c3c(=O)[nH]2)cc1 [Example 4, N-[4-(1-cyclohexyl-3-methyl-7-oxo-6,7-dihydro-1H-pyrazolo[4,3-d]pyrimidin-5-yl)phenyl]acetamide] | ≥ 6.00
COc1ccccc1-c1nc2c(C)nn(C3CCCCC3)c2c(=O)[nH]1 [Example 5, 1-Cyclohexyl-5-(2-methoxyphenyl)-3-methyl-1,6-dihydro-7H-pyrazolo[4,3-d]pyrimidin-7-one] | ≥ 6.00
Cc1nn(C2CCCCC2)c2c(=O)[nH]c(-c3ccccn3)nc12 [Example 6, 1-Cyclohexyl-3-methyl-5-(2-pyridinyl)-1,6-dihydro-7H-pyrazolo[4,3-d]pyrimidin-7-one] | ≥ 6.00
Cc1nn(C2CCCCC2)c2c(=O)[nH]c(-c3ccc(N4CCN(C)CC4)cc3)nc12 [Example 7, 1-Cyclohexyl-3-methyl-5-[4-(4-methyl-1-piperazinyl)phenyl]-1,6-dihydro-7H-pyrazolo[4,3-d]pyrimidin-7-one] | ≥ 6.00
COc1cc([N+](=O)[O-])ccc1-c1nc2c(C)nn(C3CCCCC3)c2c(=O)[nH]1 [Example 8, 1-Cyclohexyl-5-(2-methoxy-4-nitrophenyl)-3-methyl-1,6-dihydro-7H-pyrazolo[4,3-d]pyrimidin-7-one] | ≥ 6.00
COc1cc(NC(C)=O)ccc1-c1nc2c(C)nn(C3CCCCC3)c2c(=O)[nH]1 [Example 10, N-[4-(1-cyclohexyl-3-methyl-7-oxo-6,7-dihydro-1H-pyrazolo[4,3-d]pyrimidin-5-yl)-3-methoxyphenyl]acetamide] | ≥ 6.00
Cc1nn(C2CCCCC2)c2c(=O)[nH]c(-c3ccc(N)cn3)nc12 [Example 11, 5-(5-Amino-2-pyridinyl)-1-cyclohexyl-3-methyl-1,6-dihydro-7H-pyrazolo[4,3-d]pyrimidin-7-one] | ≥ 6.00
CC(=O)Nc1ccc(-c2nc3c(C)nn(C4CCCCC4)c3c(=O)[nH]2)nc1 [Example 12, N-[6-(1-cyclohexyl-3-methyl-7-oxo-1H-pyrazolo[4,3-d]pyrimidin-5-yl)-3-pyridinyl]acetamide] | ≥ 6.00
CCOc1ccccc1-c1nc2c(C)nn(C3CCCCC3)c2c(=O)[nH]1 [Example 13, 1-Cyclohexyl-5-(2-ethoxyphenyl)-3-methyl-1,6-dihydro-7H-pyrazolo[4,3-d]pyrimidin-7-one] | ≥ 6.00
Cc1nn(C2CCCCC2)c2c(=O)[nH]c(-c3ccc(N4CCC(O)CC4)cc3)nc12 [Example 14, 1-Cyclohexyl-5-[4-(4-hydroxy-1-piperidinyl)phenyl]-3-methyl-1,6-dihydro-7H-pyrazolo[4,3-d]pyrimidin-7-one] | ≥ 6.00
COc1cc(N2CCN(C)CC2)ccc1-c1nc2c(C)nn(C3CCCCC3)c2c(=O)[nH]1 [Example 16, 1-Cyclohexyl-5-[2-methoxy-4-(4-methyl-1-piperazinyl)phenyl]-3-methyl-1,6-dihydro-7H-pyrazolo[4,3-d]pyrimidin-7-one] | ≥ 6.00
Cc1nn(C2CCCCC2)c2c(=O)[nH]c(-c3cc(Cl)ccn3)nc12 [Example 17, 5-(4-Chloro-2-pyridinyl)-1-cyclohexyl-3-methyl-1,6-dihydro-7H-pyrazolo[4,3-d]pyrimidin-7-one] | ≥ 6.00
COc1ccc(F)cc1-c1nc2c(C)nn(C3CCCCC3)c2c(=O)[nH]1 [Example 18, 1-Cyclohexyl-5-(5-fluoro-2-methoxyphenyl)-3-methyl-1,6-dihydro-7H-pyrazolo[4,3-d]pyrimidin-7-one] | ≥ 6.00
COc1ccccc1-c1nc2c(c(C3CCCCC3)nn2C)c(=O)[nH]1 [Example 24, 3-Cyclohexyl-6-(2-methoxyphenyl)-1-methyl-1,5-dihydro-4H-pyrazolo[3,4-d]pyrimidin-4-one] | ≥ 6.00
Cn1nc(C2CCCCC2)c2c(=O)[nH]c(-c3ccccn3)nc21 [Example 25, 3-Cyclohexyl-1-methyl-6-(2-pyridinyl)-1,5-dihydro-4H-pyrazolo[3,4-d]pyrimidin-4-one] | ≥ 6.00
COc1cc(N2CCN(C)CC2)ccc1-c1nc2c(c(C3CCCCC3)nn2C)c(=O)[nH]1 [Example 27, 3-Cyclohexyl-6-[2-methoxy-4-(4-methyl-1-piperazinyl)phenyl]-1-methyl-1,5-dihydro-4H-pyrazolo[3,4-d]pyrimidin-4-one] | ≥ 8.00
COc1cc(N2CCN(C)CC2)ccc1-c1nc2c(c(C3CCCCC3)nn2C)c(=O)[nH]1 [Example 28, 3-Cyclohexyl-6-[2-methoxy-4-(4-methyl-1-piperazinyl)phenyl]-1-methyl-1,5-dihydro-4H-pyrazolo[3,4-d]pyrimidin-4-one monomethanesulfonate] | ≥ 8.00
COc1cc(N2CCC3(CC2)OCCO3)ccc1-c1nc2c(c(C3CCCCC3)nn2C)c(=O)[nH]1 [Example 29, 3-Cyclohexyl-6-[4-(1,4-dioxa-8-azaspiro[4,5]deca-8-yl)-2-methoxyphenyl]-1-methyl-1,5-dihydro-4H-pyrazolo[3,4-d]pyrimidin-4-one] | ≥ 6.00
COc1cc(N2CCC(O)CC2)ccc1-c1nc2c(c(C3CCCCC3)nn2C)c(=O)[nH]1 [Example 31, 3-Cyclohexyl-6-[4-(4-hydroxy-1-piperidinyl)-2-methoxyphenyl]-1-methyl-1,5-dihydro-4H-pyrazolo[3,4-d]pyrimidin-4-one] | ≥ 8.00
COc1cc(N2CCC(O)CC2)ccc1-c1nc2c(c(C3CCCCC3)nn2C)c(=O)[nH]1 [Example 32, 3-Cyclohexyl-6-[4-(4-hydroxy-1-piperidinyl)-2-methoxyphenyl]-1-methyl-1,5-dihydro-4H-pyrazolo[3,4-d]pyrimidin-4-one monomethanesulfonate] | ≥ 8.00
COCCOc1ccc(-c2nc3c(c(C4CCCCC4)nn3C)c(=O)[nH]2)c(OC)c1 [Example 34, 3-Cyclohexyl-6-[2-methoxy-4-(2-methoxyethoxy)phenyl]-1-methyl-1,5-dihydro-4H-pyrazolo[3,4-d]pyrimidin-4-one] | ≥ 6.00
COc1cc(OCCO)ccc1-c1nc2c(c(C3CCCCC3)nn2C)c(=O)[nH]1 [Example 37, 3-Cyclohexyl-6-[4-(2-hydroxyethoxy)-2-methoxyphenyl]-1-methyl-1,5-dihydro-4H-pyrazolo[3,4-d]pyrimidin-4-one] | ≥ 6.00
COc1cc(O[C@H]2CCOC2)ccc1-c1nc2c(c(C3CCCCC3)nn2C)c(=O)[nH]1 [Example 38, 3-Cyclohexyl-6-{2-methoxy-4-[(3S)-tetrahydro-3-furanyloxy]phenyl}-1-methyl-1,5-dihydro-4H-pyrazolo[3,4-d]pyrimidin-4-one] | ≥ 8.00
COc1cc(O[C@@H]2CCOC2)ccc1-c1nc2c(c(C3CCCCC3)nn2C)c(=O)[nH]1 [Example 39, 3-Cyclohexyl-6-{2-methoxy-4-[(3R)-tetrahydro-3-furanyloxy]phenyl}-1-methyl-1,5-dihydro-4H-pyrazolo[3,4-d]pyrimidin-4-one] | ≥ 6.00
COc1cc(OCC(=O)O)ccc1-c1nc2c(c(C3CCCCC3)nn2C)c(=O)[nH]1 [Example 41, [4-(3-cyclohexyl-1-methyl-4-oxo-4,5-dihydro-1H-pyrazolo[3,4-d]pyrimidin-6-yl)-3-methoxyphenoxy]acetic acid] | ≥ 6.00
COc1cc(OC2CCN(C)CC2)ccc1-c1nc2c(c(C3CCCCC3)nn2C)c(=O)[nH]1 [Example 42, 3-Cyclohexyl-6-{2-methoxy-4-[(-methyl-4-piperidinyl)oxy]phenyl}-1-methyl-1,5-dihydro-4H-pyrazolo[3,4-d]pyrimidin-4-one monomaleate] | ≥ 6.00
COc1cc(N)ccc1-c1nc2c(c(C3CCCCC3)nn2C)c(=O)[nH]1 [Example 44, 6-(4-Amino-2-methoxyphenyl)-3-cyclohexyl-1-methyl-1,5-dihydro-4H-pyrazolo[3,4-d]pyrimidin-4-one] | ≥ 8.00
